“Also recorded” adds a separate entry of the source.
Columns and labels:
[1] = molecular target: T1, human recombinant MAO-B (hMAO-B) enzyme (Homo sapiens, UniProt P27338); assay: hMAO-B activity, Amplex UltraRed fluorometric method; format: biochemical; conditions: 1 µM
T1 construct: purchased Invitrogen, USA
T1 sequence (P27338 1-520): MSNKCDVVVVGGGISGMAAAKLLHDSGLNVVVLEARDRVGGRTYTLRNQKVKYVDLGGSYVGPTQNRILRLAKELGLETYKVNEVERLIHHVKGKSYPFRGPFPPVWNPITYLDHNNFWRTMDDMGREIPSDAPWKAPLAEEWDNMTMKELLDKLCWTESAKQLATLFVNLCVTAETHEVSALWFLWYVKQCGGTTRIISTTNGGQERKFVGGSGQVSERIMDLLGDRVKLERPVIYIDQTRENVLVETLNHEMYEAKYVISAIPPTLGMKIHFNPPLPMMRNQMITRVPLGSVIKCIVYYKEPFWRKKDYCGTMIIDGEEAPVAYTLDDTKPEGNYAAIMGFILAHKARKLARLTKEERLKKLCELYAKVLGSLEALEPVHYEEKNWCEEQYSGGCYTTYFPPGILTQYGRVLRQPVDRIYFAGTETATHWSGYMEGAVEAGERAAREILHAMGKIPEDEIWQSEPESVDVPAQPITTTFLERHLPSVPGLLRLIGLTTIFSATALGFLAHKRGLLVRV
Method: The effects of the test compounds on human recombinant MAO-B (hMAO-B) enzyme were studied by the Amplex UltraRed reagent (Sigma-Aldrich Chemie GmbH) fluorometric method with small modifications. The working solutions of the compounds, reagents, hMAO-B, and reaction buffers were prepared according to the producer’s instructions. The tyramine hydrochloride was used as a substrate. The reaction mixture contained a stock solution of Amplex Red (10 mM in dimethyl sulfoxide), the reaction buffer (0.05 M sodium phosphate) at pH 7.4, and the storage solution of horseradish peroxidase (10 U/mL). There were pure MAO-B working solutions in the reaction buffer and MAO-B working solution containing hydrogen peroxide as controls. The final concentration of the test compounds in the well was 1 μM. The compounds together with hMAO-B were embedded in a 96-well plate (8 wells for each compound), and then the plate was incubated for 30 min (dark, at 37 °C). Thereafter, the reaction was initiated by 50 μL Mix Solution: Amplex®Red reagent, horseradish peroxidase, and tyramine as an enzyme substrate in the reaction buffer. The fluorescence was measured every 30 min at 0, 30, 60, 90, 120, and 150 min), in dark, while shaking the reaction mixture at constant temperature of 37 °C. The fluorimetric measurements were assessed using a Synergy 2 Microplate Reader.
Monoamine oxidase B catalyzes dopamine metabolism and oxidation leading to the formation of reactive oxygen species and reactive quinones, which provoke dopamine neurotoxicity and neurodegeneration. In the next experiments, the compounds showing the best safety profile and the most promising neuroprotective activity (3d, 3e, 3h, 3i, 3m, 3n, 3p) were evaluated for their potential inhibitory activity on hMAOB. Selegiline and rasagiline as potent MAO-B inhibitors were used as standard compounds for comparison.

[2] = MTT cytotoxicity on SH-SY5Y cells; format: cell-based, human; conditions: human, SH-SY5Y neuroblastoma cells, MTT test, 24 h incubation; read-out: IC50, in vitro cytotoxicity on SH-SY5Y cells
Method: (§1) Human neuroblastoma cell line SH-SY5Y was obtained from the European Collection of Cell Cultures (ECACC, Salisbury, UK). The cells were maintained in 75 cm^2 flasks at 37 °C in a humidified atmosphere with 5% CO2 and cultured in RPMI 1640 medium, supplemented with 10% fetal bovine serum and 2 mM L-glutamine.
(§2) MTT (Sigma-Aldrich Chemie GmbH, Schnelldorf, Germany) assay is based on interaction between tetrazolium dye 3-(4,5-dimethylthiazol-2-yl)-2,5-diphenyltetrazolium bromide and succinic dehydrogenase in the living cells’ mitochondria. In this reaction, the formed purple formazan crystals indicate the presence of viable cells. SH-SY5Y cells were seeded in 96-well microplates at a density 2.5 × 10^4 cells/well and allowed to attach to the well surface at 37 °C in a humidified atmosphere with 5% CO2 (24 h). Different concentrations of compounds ([…]) were added to cells and incubated for 24 h. For each concentration, a set of at least 8 wells were used. After the treatment, the solution in each well was substituted with MTT (3-(4,5-dimethylthiazol-2-yl)-2,5-diphenyltetrazolium bromide) solution (0.5 mg/mL in culture medium). The microplates were further incubated for 3 h at 37 °C and the obtained formazan crystals were dissolved by 100 µL/well of DMSO. The absorbance was measured in a multiplate reader Synergy 2 (BioTek Instruments, Inc, Highland Park, Winooski, VT, USA) at 570 nm (690 nm for background absorbance).
(§3) An important step in the development of new pharmacologically active compounds is the establishment of their safety profile. An in vitro toxicity evaluation was carried out on the neuroblastoma cell line SH-SY5Y, which is a well-established model in neuroscience. The neuroblastoma SH-SY5Y are human derived cells with relatively homogeneous neuroblast-like structure. The cells express a dopamine-β-hydroxylase and tyrosine hydroxylase enzyme activity, specific types of human proteins and protein isoforms. The possible neurotoxic effects of the potential drug candidates were measured by cell viability assay (MTT-test). The IC50 values were used as a robust parameter for comparison. The test compounds were dissolved in DMSO and serially diluted in cell culture medium to achieve final concentrations ranging from 1 to 500 µM; the culture medium containing DMSO in the corresponding concentration was used as untreated controls. A concentration dependent effect on cell viability was observed after 24 h incubation.

[3] = tested on: SH-SY5Y cells; assay: MTT cytotoxicity on SH-SY5Y cells; format: cell-based, human; conditions: MTT test, 24 h incubation; read-out: IC50, in vitro cytotoxicity on SH-SY5Y cells
Method: as §1, §2, §3

SMILES | inhibitory effect on hMAOB activity (in words) [1] | IC50 at 24 h [2] [µM] | IC50 [3] [µM]
O=C(CCn1c(=S)n(CCC(=O)NN=Cc2cccc(O)c2O)c2ccccc21)NN=Cc1cccc(O)c1O [3h, 3,3′-(2-Thioxo-1H-benzo[d]imidazole-1,3(2H)-diyl)bis(N′-(2,3-dihydroxybenzylidene)propanehydrazide)] | statistically significant MAO-B inhibitory effects; also recorded: most potent with an hMAO-B inhibitory activity similar to selegiline and rasagiline | > 250 | 296
O=C(CCn1c(=S)n(CCC(=O)NN=Cc2ccccc2O)c2ccccc21)NN=Cc1ccccc1O [3e, 3,3′-(2-Thioxo-1H-benzo[d]imidazole-1,3(2H)-diyl)bis(N′-(2-hydroxybenzylidene)propanehydrazide)] | statistically significant MAO-B inhibitory effects | > 200 | 235
O=C(CCn1c(=S)n(CCC(=O)NN=Cc2ccc(O)cc2O)c2ccccc21)NN=Cc1ccc(O)cc1O [3i, 3,3′-(2-Thioxo-1H-benzo[d]imidazole-1,3(2H)-diyl)bis(N′-(2,4-dihydroxybenzylidene)propanehydrazide)] | statistically significant MAO-B inhibitory effects | > 250 | 301
COc1ccc(C=NNC(=O)CCn2c(=S)n(CCC(=O)NN=Cc3ccc(OC)cc3O)c3ccccc32)c(O)c1 [3m, 3,3′-(2-Thioxo-1H-benzo[d]imidazole-1,3(2H)-diyl)bis(N′-(2-hydroxy-4-methoxybenzylidene)propanehydrazide)] | statistically significant MAO-B inhibitory effects | > 200 | 211

— publication PMC9138090, “Study on the Neuroprotective, Radical-Scavenging and MAO-B Inhibiting Properties of New Benzimidazole Arylhydrazones as Potential Multi-Target Drugs for the Treatment of Parkinson’s Disease” (Antioxidants, 2022)
